Drawing on US5001129A, “Oxazoloquinoline compounds and therapeutic application thereof” (Delalande S.A., priority 1987, dated 1991), this text covers IC50, ED50 and LD50 for 18 molecules.

One data set deals with T1, monoamine oxydase (Rattus norvegicus, UniProt P21396).
T1 construct: in vitro on homogenates of rat brain; from tissue; host or cells: rat brain homogenate
T1 sequence (P21396 1-526): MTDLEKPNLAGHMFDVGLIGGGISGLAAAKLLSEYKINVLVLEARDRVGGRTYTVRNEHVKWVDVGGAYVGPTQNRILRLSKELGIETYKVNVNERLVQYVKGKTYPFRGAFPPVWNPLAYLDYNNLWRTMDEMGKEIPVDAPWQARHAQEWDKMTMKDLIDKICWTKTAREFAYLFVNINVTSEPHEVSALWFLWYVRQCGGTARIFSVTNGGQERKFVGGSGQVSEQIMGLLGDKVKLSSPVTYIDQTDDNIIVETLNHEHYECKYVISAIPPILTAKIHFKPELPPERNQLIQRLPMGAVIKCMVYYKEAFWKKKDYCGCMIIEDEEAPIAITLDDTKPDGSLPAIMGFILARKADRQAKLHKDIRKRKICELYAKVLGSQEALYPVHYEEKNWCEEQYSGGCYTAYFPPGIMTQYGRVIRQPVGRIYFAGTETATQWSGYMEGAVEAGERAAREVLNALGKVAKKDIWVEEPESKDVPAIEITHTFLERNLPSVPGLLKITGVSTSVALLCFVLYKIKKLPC
In words: inhibition of the activity of the monoamine oxydase in vitro on homogenates of rat brain (serotonin as substrate). The following applies: serotonin as substrate at 480 μM, read-out: Test in vitro IC50. It is filed as biochemical. As to the method: in vitro on homogenates of rat brain, by measuring the concentration of the product inhibiting by 50% (IC50) the activity of the monoamine oxydase utilising serotonin as substrate at 480 μM, according to the method described by M. STROLIN BENEDETTI. T. BOUCHER and C. J. FOWLER in Naunyn--Schmiedebergs Archiv. of Pharm. (1983) 323, 315-320;

In data set [1] the test system is effects of serotonin (precursor hydroxy-5 tryptophan, 5-HTP). Kind of data set: potentiation of hydroxy-5 tryptophan (5-HTP): generalised trembling or stereotypies in rats. The following applies: Rattus norvegicus, oral, 1 h before 120 mg/kg i.p. 5-HTP, generalised trembling or stereotypies in 50% of the animals, read-out: Test in vivo ED50. As to the method: in vivo by determining in rats the dose of the product which, administered orally, causes in 50% of the animals (ED50) the appearance of generalised trembling or stereotypies (finger-tapping as on a piano, movements of the head) following the intraperitoneal administration 1 h after the first treatment of a dose of 120 mg/kg of hydroxy-5 tryptophan (5-HTP) [M. JALFRE, B. BUCHER, A. COSTON, G. MOCQUET, R. D. PORSOLT, Arch. Int. Pharmacodyn., (1982), 259, 194-221].

The nature of a further data set: LD50 in mice, oral. The following applies: mouse, in vivo.

For the molecule `C=C[C@H]1OC(=O)N2c3ccccc3CC[C@@H]12` (relative stereo) [MD 200502, ethenyl-3 tetrahydro-3,3a,4,5 1H-oxazolo [3,4-a] quinoline-one-1], the IC50 at monoamine oxydase is 500 nM.
For `C=C[C@@H]1OC(=O)N2c3ccccc3CC[C@@H]12` (relative stereo) [MD 200503, ethenyl-3 tetrahydro-3,3a,4,5 1H-oxazolo [3,4-a] quinoline-one-1], the ED50 in data set [1] was determined as 20 mg/kg. Further, the IC50 on monoamine oxydase turned out to be 57 nM.
In the case of `O=C1O[C@H](CO)[C@@H]2CCc3ccccc3N12` (relative stereo) [MD 200504, cis hydroxymethyl-3 tetrahydro-3,3a,4,5 1H-oxazolo [3,4-a] quinoline-one-1], the ED50 in data set [1] was 7.8 mg/kg.
With `O=C1O[C@H](CO)[C@@H]2Cc3ccccc3N12` (relative stereo) [MD 200602], the IC50 on monoamine oxydase was 2800 nM.
With `COC[C@H]1OC(=O)N2c3ccccc3CC[C@@H]12` (relative stereo) [MD 200682, cis methoxymethyl-3 tetrahydro-3,3a,4,5 1H oxazolo [3,4-a] quinoline-one-1], the ED50 in data set [1] worked out at 2.3 mg/kg. In addition, at monoamine oxydase, the IC50 stood at 90 nM.
For `O=C1O[C@@H](CO)[C@@H]2Cc3ccccc3N12` (relative stereo) [MD 200718], on monoamine oxydase, the IC50 is 8700 nM.
On the same count and under the same terms, the result for `COc1ccc2c(c1)CC[C@H]1[C@@H](CO)OC(=O)N21` (relative stereo) [MD 280386, cis hydroxymethyl-3 methoxy-7 tetrahydro-3,3a,4,5 1H-oxazino [3, 4a] quinoline-one-1] reads 19 nM; that for `COc1ccc2c(c1)CC[C@H]1[C@H](CO)OC(=O)N21` (relative stereo) [MD 280387], 75 nM.
Turning to `C=C[C@@H]1OC(=O)N2c3ccc(OC)cc3CC[C@@H]12` (relative stereo) [MD 280404, ethenyl-3 methoxy-7 tetrahydro-3,3a, 4,5 1H-oxazolo [3.4-a] quinoline-one-1], the ED50 in data set [1] was found to be 11 mg/kg. Besides, at monoamine oxydase, the IC50 was determined as 29 nM.
Take `C[C@@H]1OC(=O)N2c3ccccc3CC[C@@H]12` (relative stereo) [MD 280430, trans methyl-3 tetrahydro-3,3a,4,5 1 H-oxazolo [3,4-a] quinoline-one-1]: in data set [1], the ED50 is 105 mg/kg. The IC50 at monoamine oxydase was 1400 nM.
The matching figures for `COC[C@H]1OC(=O)N2c3ccc(OC)cc3CC[C@@H]12` (relative stereo) [MD 280448]: 1.8 mg/kg and 9 nM.
As to `COC[C@@H]1OC(=O)N2c3ccc(OC)cc3CC[C@@H]12` (relative stereo) [MD 280449], the IC50 on monoamine oxydase worked out at 6 nM. In addition, the LD50 in “LD50 in mice, oral” stood at 1120 mg/kg.
As for `COc1ccc2c(c1)CC[C@H]1[C@@H](CN)OC(=O)N21` (relative stereo) [MD 370024, cis aminomethyl-3 methoxy-7 tetrahydro-3,3a,4,5 1H-oxazolo [3,4-a] quinoline-one-2], the IC50 on monoamine oxydase is 1000 nM.
As to `COc1ccc2c(c1)CC[C@H]1[C@H](CN)OC(=O)N21` (relative stereo) [MD 370025], on monoamine oxydase, the IC50 was found to be 1600 nM.
`CNC[C@H]1OC(=O)N2c3ccc(OC)cc3CC[C@@H]12` (relative stereo) [MD 370026] came in with an LD50 in the data set “LD50 in mice, oral” of 263 mg/kg.
`CNC[C@@H]1OC(=O)N2c3ccc(OC)cc3CC[C@@H]12` (relative stereo) [MD 370027]: in data set [1], the ED50 is 5.8 mg/kg.
Consider `O=C1O[C@@H](CO)[C@@H]2CCc3ccc(Cl)cc3N12` (relative stereo) [MD 370335], for which the IC50 on monoamine oxydase amounted to 97 nM.
On the same count and under the same terms, the result for `O=C1O[C@H](CO)[C@@H]2CCc3ccc(Cl)cc3N12` (relative stereo) [MD 370336] reads 80 nM.

One may read the IC50 as the midpoint of a concentration-inhibition curve. By ED50 is commonly meant the dose at which the effect has come halfway, by size or by number of responders. As usually defined, the LD50 is the dose expected to kill half of the subjects tested. Higher therefore signals a less toxic substance.
